{"source": "patent US20230391785A1", "about": "“NITROGEN-CONTAINING HETEROCYCLIC COMPOUND, METHOD FOR PREPARING SAME AND USE OF SAME” (280 Bio, Inc., priority 2021, published 2023)", "type_in_all_cases": "cell-based", "key": {"[1]": {"tested_on": "AGS gastric cancer cell line (KRAS G12D mutation)", "assay": "Proliferation inhibition measured by CTG (CellTiter Glo), AGS", "conditions": "Table 3; CTG, 120 hours incubation; class symbol; read-out: IC50 (AGS)", "source_text": "(§1) NCI-H358 is a human non-small cell lung cancer cell line with KRAS G12C mutation; PANC-1 and AsPC-1 are pancreatic cancer cell lines with KRAS G12D mutation; AGS is a gastric cancer cell line with KRAS G12D mutation; A427 is a lung cancer cell line with KRAS G12D mutation; THP-1 is a leukemia cell line with NRAS G12D mutation; Hs 578T is a breast cancer cell line with HRAS G12D mutation; SW480 is a colon cancer cell lines with KRAS G12V mutation; A375 is a wild type malignant melanoma cell line. The proliferation inhibitory effect of the compounds on various mutations was evaluated by determining the proliferation inhibitory activity of the compounds on these cell lines.\n(§2) The assay was conducted on either 384-well plates or 96-well plates. The procedures are as follows:\n(§3) The cell suspensions were added to 384- or 96-well plates (384-well plate: 40 μL; 96-well plate: […]) except for peripheral wells. The plates were incubated in a carbon dioxide incubator overnight. Prepared compounds (10 concentration gradients by serial 3-fold dilution) were added to the wells. The cell plates were incubated in a carbon dioxide incubator for 120 hours. CellTiter Glo reagent (384 well plate: 25 μL; 96 well plate: 100 μL) was added to the 384- or 96-well plates. The plates were shaken for 10 minutes away from light, and incubated for 10 minutes. The plates were read by EnVision system. Inhibition curves were plotted using XLFit and IC50 values were calculated. “IC50>10 μM” is denoted by “*”, “10 μM≥IC50>1 μM” is denoted by “**”, “1 μM≥IC50>100 nM” is denoted by “***”, and “IC50≤100 nM” is denoted by “****”."}, "[2]": {"tested_on": "SW480 colon cancer cell line (KRAS G12V mutation)", "assay": "Proliferation inhibition measured by CTG (CellTiter Glo), SW480", "conditions": "Homo sapiens, Table 3, 120 hours incubation, class symbol, read-out: IC50 (SW480)", "source_text": "as §1, §2, §3"}, "[3]": {"tested_on": "NCI-H358 cells (KRAS G12C mutation)", "assay": "Proliferation inhibition measured by CTG (CellTiter Glo), NCI-H358", "conditions": "Homo sapiens, Table 3, CTG, 120 hours incubation, class symbol, read-out: IC50 (H358)", "source_text": "as §1, §2, §3"}, "[4]": {"tested_on": "A375 wild type malignant melanoma cell line", "assay": "Proliferation inhibition measured by CTG (CellTiter Glo), A375", "conditions": "Homo sapiens, A-375; Table 3; CTG, 120 hours incubation; class symbol; read-out: IC50 (A375)", "source_text": "as §1, §2, §3"}}, "data": [{"smiles": "C[C@@H]1Cn2cncc2CN1c1nc(O[C@H]2CCN(C)C2)nc2c1CCN(c1cccc3cccc(Cl)c13)C2", "note": "[Compound 71]", "values": [{"measurement": "IC50", "setting": "[1]", "value": "100 to 1000", "unit": "nM"}, {"measurement": "IC50", "setting": "[2]", "value": "100 to 1000", "unit": "nM"}, {"measurement": "IC50", "setting": "[3]", "value": "100 to 1000", "unit": "nM"}, {"measurement": "IC50", "setting": "[4]", "value": "1000 to 10000", "unit": "nM"}]}, {"smiles": "C[C@@H]1Cn2cncc2CN1c1nc(OC2CN(C)C2)nc2c1CCN(c1cccc3cccc(Cl)c13)C2", "note": "[Compound 74]", "values": [{"measurement": "IC50", "setting": "[1]", "value": "100 to 1000", "unit": "nM"}, {"measurement": "IC50", "setting": "[2]", "value": "100 to 1000", "unit": "nM"}, {"measurement": "IC50", "setting": "[3]", "value": "100 to 1000", "unit": "nM"}, {"measurement": "IC50", "setting": "[4]", "value": "1000 to 10000", "unit": "nM"}]}, {"smiles": "[2H]C([2H])([2H])N1CCC[C@H]1COc1nc2c(c(N3Cc4cncn4C[C@H]3C)n1)CCN(c1cccc3cccc(Cl)c13)C2", "note": "[Compound 77]", "values": [{"measurement": "IC50", "setting": "[1]", "value": "≤ 100", "unit": "nM"}, {"measurement": "IC50", "setting": "[2]", "value": "≤ 100", "unit": "nM"}, {"measurement": "IC50", "setting": "[3]", "value": "≤ 100", "unit": "nM"}, {"measurement": "IC50", "setting": "[4]", "value": "≤ 100", "unit": "nM"}]}, {"smiles": "C[C@@H]1Cn2cnc(F)c2CN1c1nc(OC[C@@H]2CCCN2C)nc2c1CCN(c1cc(O)cc3cccc(Cl)c13)C2", "note": "[Compound 78]", "values": [{"measurement": "IC50", "setting": "[1]", "value": "≤ 100", "unit": "nM"}, {"measurement": "IC50", "setting": "[2]", "value": "≤ 100", "unit": "nM"}, {"measurement": "IC50", "setting": "[3]", "value": "≤ 100", "unit": "nM"}, {"measurement": "IC50", "setting": "[4]", "value": "≤ 100", "unit": "nM"}]}, {"smiles": "C[C@@H]1Cn2cncc2CN1c1nc(OC[C@@H]2CCCN2C)nc2c1CCN(c1cc(OC(=O)C(C)(C)C)cc3cccc(Cl)c13)C2", "note": "[Compound 79]", "values": [{"measurement": "IC50", "setting": "[1]", "value": "≤ 100", "unit": "nM"}, {"measurement": "IC50", "setting": "[2]", "value": "≤ 100", "unit": "nM"}, {"measurement": "IC50", "setting": "[4]", "value": "≤ 100", "unit": "nM"}]}, {"smiles": "C[C@@H]1Cn2cncc2CN1c1nc(OC[C@@H]2CCCN2C)nc2c1CCN(c1cc(OC(=O)N(C)C)cc3cccc(Cl)c13)C2", "note": "[Compound 82]", "values": [{"measurement": "IC50", "setting": "[1]", "value": "≤ 100", "unit": "nM"}, {"measurement": "IC50", "setting": "[2]", "value": "100 to 1000", "unit": "nM"}, {"measurement": "IC50", "setting": "[3]", "value": "100 to 1000", "unit": "nM"}, {"measurement": "IC50", "setting": "[4]", "value": "100 to 1000", "unit": "nM"}]}, {"smiles": "C[C@@H]1Cn2cncc2CN1c1nc(OC[C@@H]2CCCN2C)nc2c1CCN(c1cccc3cccnc13)C2", "note": "[Compound 83]", "values": [{"measurement": "IC50", "setting": "[1]", "value": "≤ 100", "unit": "nM"}, {"measurement": "IC50", "setting": "[2]", "value": "≤ 100", "unit": "nM"}, {"measurement": "IC50", "setting": "[3]", "value": "≤ 100", "unit": "nM"}, {"measurement": "IC50", "setting": "[4]", "value": "100 to 1000", "unit": "nM"}]}, {"smiles": "C[C@@H]1Cn2cncc2CN1c1nc(OC[C@@H]2CCCN2C)nc2c1CCN(c1cccc3c1CCCC3)C2", "note": "[Compound 84]", "values": [{"measurement": "IC50", "setting": "[1]", "value": "100 to 1000", "unit": "nM"}, {"measurement": "IC50", "setting": "[2]", "value": "100 to 1000", "unit": "nM"}, {"measurement": "IC50", "setting": "[3]", "value": "1000 to 10000", "unit": "nM"}, {"measurement": "IC50", "setting": "[4]", "value": "1000 to 10000", "unit": "nM"}]}, {"smiles": "COc1cc(N2CCc3c(nc(OC[C@@H]4CCCN4C)nc3N3Cc4cncn4C[C@H]3C)C2)c2c(Cl)cccc2c1", "note": "[Compound 85]", "values": [{"measurement": "IC50", "setting": "[1]", "value": "100 to 1000", "unit": "nM"}, {"measurement": "IC50", "setting": "[2]", "value": "100 to 1000", "unit": "nM"}, {"measurement": "IC50", "setting": "[3]", "value": "100 to 1000", "unit": "nM"}, {"measurement": "IC50", "setting": "[4]", "value": "1000 to 10000", "unit": "nM"}]}, {"smiles": "C[C@@H]1Cn2cnc(Cl)c2CN1c1nc(OCC2CCCN2C)nc2c1CCN(c1cccc3cccc(Cl)c13)C2", "note": "(stereo partly drawn) [Compound 86]", "values": [{"measurement": "IC50", "setting": "[1]", "value": "≤ 100", "unit": "nM"}, {"measurement": "IC50", "setting": "[2]", "value": "≤ 100", "unit": "nM"}, {"measurement": "IC50", "setting": "[3]", "value": "≤ 100", "unit": "nM"}, {"measurement": "IC50", "setting": "[4]", "value": "≤ 100", "unit": "nM"}]}, {"smiles": "C[C@@H]1Cn2cnc(F)c2CN1c1nc(OC[C@@H]2CCCN2C)nc2cc(-c3cccc4cccc(Cl)c34)ccc12", "note": "[Compound 88]", "values": [{"measurement": "IC50", "setting": "[1]", "value": "≤ 100", "unit": "nM"}, {"measurement": "IC50", "setting": "[2]", "value": "≤ 100", "unit": "nM"}, {"measurement": "IC50", "setting": "[3]", "value": "≤ 100", "unit": "nM"}, {"measurement": "IC50", "setting": "[4]", "value": "100 to 1000", "unit": "nM"}]}, {"smiles": "C[C@@H]1Cn2cnc(F)c2CN1c1nc(OC[C@@H]2CCCN2C)nc2cc(-c3cc(O)cc4cccc(Cl)c34)ccc12", "note": "[Compound 91]", "values": [{"measurement": "IC50", "setting": "[1]", "value": "≤ 100", "unit": "nM"}, {"measurement": "IC50", "setting": "[2]", "value": "≤ 100", "unit": "nM"}, {"measurement": "IC50", "setting": "[3]", "value": "≤ 100", "unit": "nM"}, {"measurement": "IC50", "setting": "[4]", "value": "≤ 100", "unit": "nM"}]}, {"smiles": "C[C@@H]1Cn2cnc(F)c2CN1c1nc(OC[C@@H]2CCCN2C)nc2cc(-c3cc(OC(=O)C(C)(C)C)cc4cccc(Cl)c34)ccc12", "note": "[Compound 92]", "values": [{"measurement": "IC50", "setting": "[1]", "value": "≤ 100", "unit": "nM"}, {"measurement": "IC50", "setting": "[2]", "value": "≤ 100", "unit": "nM"}, {"measurement": "IC50", "setting": "[3]", "value": "≤ 100", "unit": "nM"}, {"measurement": "IC50", "setting": "[4]", "value": "≤ 100", "unit": "nM"}]}, {"smiles": "C[C@@H]1Cn2cnc(F)c2CN1c1nc(OC[C@@H]2CCCN2C)nc2c1CCN(c1cc(OC(=O)C(C)(C)C)cc3cccc(Cl)c13)C2", "note": "[Compound 96]", "values": [{"measurement": "IC50", "setting": "[1]", "value": "≤ 100", "unit": "nM"}, {"measurement": "IC50", "setting": "[2]", "value": "≤ 100", "unit": "nM"}]}, {"smiles": "C[C@@H]1Cn2cnc(F)c2CN1c1nc(OC[C@@H]2CCCN2C)nc2c1CCN(c1cc(OC(=O)N(C)C)cc3cccc(Cl)c13)C2", "note": "[Compound 97]", "values": [{"measurement": "IC50", "setting": "[1]", "value": "≤ 100", "unit": "nM"}, {"measurement": "IC50", "setting": "[2]", "value": "≤ 100", "unit": "nM"}, {"measurement": "IC50", "setting": "[3]", "value": "≤ 100", "unit": "nM"}, {"measurement": "IC50", "setting": "[4]", "value": "100 to 1000", "unit": "nM"}]}, {"smiles": "CNC(=O)Oc1cc(N2CCc3c(nc(OC[C@@H]4CCCN4C)nc3N3Cc4c(F)ncn4C[C@H]3C)C2)c2c(Cl)cccc2c1", "note": "[Compound 98]", "values": [{"measurement": "IC50", "setting": "[1]", "value": "≤ 100", "unit": "nM"}, {"measurement": "IC50", "setting": "[2]", "value": "≤ 100", "unit": "nM"}, {"measurement": "IC50", "setting": "[3]", "value": "≤ 100", "unit": "nM"}, {"measurement": "IC50", "setting": "[4]", "value": "≤ 100", "unit": "nM"}]}, {"smiles": "C[C@@H]1Cn2cnc(F)c2CN1c1nc(OC[C@@H]2CCCCN2C)nc2c1CCN(c1cccc3cccc(Cl)c13)C2", "note": "[Compound 99]", "values": [{"measurement": "IC50", "setting": "[1]", "value": "≤ 100", "unit": "nM"}, {"measurement": "IC50", "setting": "[2]", "value": "≤ 100", "unit": "nM"}, {"measurement": "IC50", "setting": "[3]", "value": "≤ 100", "unit": "nM"}, {"measurement": "IC50", "setting": "[4]", "value": "≤ 100", "unit": "nM"}]}, {"smiles": "CC(C)[C@@H](N)C(=O)Oc1cc(N2CCc3c(nc(OC[C@@H]4CCCN4C)nc3N3Cc4c(F)ncn4C[C@H]3C)C2)c2c(Cl)cccc2c1", "note": "[Compound 101]", "values": [{"measurement": "IC50", "setting": "[1]", "value": "≤ 100", "unit": "nM"}, {"measurement": "IC50", "setting": "[2]", "value": "≤ 100", "unit": "nM"}, {"measurement": "IC50", "setting": "[3]", "value": "≤ 100", "unit": "nM"}, {"measurement": "IC50", "setting": "[4]", "value": "≤ 100", "unit": "nM"}]}]}
